Experimental data as given in publication PMC6081875 (EJNMMI Research, 2018).

What was measured:
bone marrow = experiment: Bone marrow dosimetry, hybrid protocol (HP): sequential abdominal quantitative SPECT scaled with a single whole-body planar image; type: in vivo, human
Description: The proposed hybrid protocol (HP) uses a single whole-body image and sequential single-bed quantitative SPECT acquisitions of the abdomen to determine the ROB TAC, instead of deriving the ROB TAC from sequential whole-body planar imaging.
First, the abdominal effective decay constant λSPECT was derived via a mono-exponential fit to the total activity in the SPECT scans 24, 48, and 72 h post-therapy. Especially, all organs and all tumours were included in the fitting of the TAC, as it was the case for the determination of A~WB from the reference protocol. […] The mono-exponential SPECT-based abdominal TAC was then scaled with a chosen base point. This base point is defined via the whole-body activity AWB(t^∗) of a single whole-body planar image acquired at an arbitrary time point t^∗∈ 24, 48, or 72 h post-therapy. The resulting pseudo-whole-body TAC AWB, pseudo(t) is intended to serve as an estimate of the reference-protocol-based whole-body TAC (Eq. (7.1)) and can be further used to determine a pseudo-whole-body time-integrated activity A~WB,pseudo (Eq. (7.2)).
7.1 AWB,pseudot=AWB,pseudot^∗∙exp−λSPECT∙t−t^∗, 7.2 A~WB,pseudo=∫t=0∞AWB,pseudot^′dt^′=AWBt^∗∙expλSPECT∙t^∗/λSPECT=AWBt^∗∙expλSPECT∙t^∗∙T1/2,SPECT/ln2.
Based on the hybrid model given in Eqs. (7.1) and (7.2), the bone marrow absorbed dose from the ROB can be estimated by Eqs. (4.1) and (4.2). In this work, we investigated a combination of the sequential abdominal SPECT with the whole-body planar images at 24, 48, or 72 h p. i., where each whole-body planar image was individually calibrated via the quantitative SPECT at the corresponding time point (Fig. 2). These different hybrid protocols were further denoted as HP24, HP48, and HP72. The agreement of the bone marrow absorbed doses from the ROB, as determined via the HP and the RP, was assessed. Therefore, the percentage deviation between absorbed dose estimates (PDdose; Eq. (8)) was calculated, and a statistical test for correlation was performed (MATLAB Pearson correlation analysis).
Furthermore, the same analysis was performed regarding the total bone marrow absorbed dose estimates composed of all available constituents: the ROB (including tumours), the explicitly analysed organs, and the contribution of the blood activity.

[1] = Blood time-activity curve from venous blood samples (gamma counter, bi-exponential fit); type: in vivo, human; conditions: blood samples 30 min, 80 min, 24, 48, 72 h p. i.; median of n = 5 patients per therapy
Description: (§1) Data for dosimetry were acquired during a routine 4-day in-patient stay following the radiopharmaceutical injection, in conjunction with standard clinical examinations. All patients received a 15-min one-bed abdominal SPECT scan and a 20-min whole-body planar scintigraphy at 24, 48, and 72 h post-injection (p. i.) on a dual-headed Symbia T2 SPECT/CT (Siemens Medical Solutions, Erlangen, Germany). Counts were detected for the photopeak window of 208 keV (width 15%) by the usage of a medium-energy low-penetration collimator. Two additional scatter windows were measured at 170 keV (width 15%) and 240 keV (width 10%). A low-dose AC-CT was acquired at the first image acquisition session for anatomical correlation and attenuation correction during quantitative SPECT reconstruction. For the determination of the absorbed dose to the bone marrow from the activity circulating in the blood, five venous blood samples were drawn from the site contralateral to injection at 30 and 80 min p. i. and 24, 48, and 72 h p. i..
[11, 13]. […] To derive the patient-specific blood TAC, 1 ml of blood of each sample was pipetted into a test tube and measured within a Cobra Gamma Counter (Packard Instrument Company, Inc., Meriden, CT), which has been previously calibrated via five 1-ml test samples of known activity concentration. […]

[2] = Abdominal effective half-life from sequential quantitative SPECT (mono-exponential fit); type: in vivo
Description: as §1
Quantitative SPECT images were reconstructed as described by Delker et al. via a rotation-based, penalised, one-step-late ordered subset expectation maximisation algorithm, which included corrections for scatter, attenuation, and distance-dependent geometrical collimator blur. Attenuation correction was performed for each SPECT scan via the AC-CT, which was acquired along with the SPECT scan 24 h post-injection. To apply the attenuation correction, especially to the SPECT scans 48 and 72 h p. i., the single AC-CT was co-registered onto an initial SPECT reconstruction without attenuation correction by using a rigid body co-registration algorithm with six degrees of freedom (PMOD Version 3.609, PMOD Technologies, Zurich, Switzerland). If only one AC-CT is acquired for sequential SPECT imaging, special care has to be taken to minimise misregistration between SPECT images and separately acquired CT scans, as such a misalignment can distort the proper attenuation correction and, thus, activity quantification. This is in principal also true for serial SPECT and CT imaging, as even within a single image acquisition session patient movements cannot be entirely avoided. Scatter correction employed the triple energy window (TEW) method. Correction for distance-dependent collimator blur made use of a Gaussian blur model. Corrections for partial volume effects and dead time were not applied. For conversion of the measured counts per second and per voxel to Becquerel per millilitre, an appropriate calibration factor was determined. Therefore, we used a large cylinder of approximately 20 cm diameter, which was filled with a known activity concentration and which has been imaged and reconstructed via the same protocol.
First, the abdominal effective decay constant λSPECT was derived via a mono-exponential fit to the total activity in the SPECT scans 24, 48, and 72 h post-therapy. Especially, all organs and all tumours were included in the fitting of the TAC, as it was the case for the determination of A~WB from the reference protocol. This effective decay constant λSPECT serves as a surrogate for the reference-protocol-based whole-body effective decay constant (Fig. 2). The mono-exponential SPECT-based abdominal TAC was then scaled with a chosen base point. This base point is defined via the whole-body activity AWB(t^∗) of a single whole-body planar image acquired at an arbitrary time point t^∗∈ 24, 48, or 72 h post-therapy. The resulting pseudo-whole-body TAC AWB, pseudo(t) is intended to serve as an estimate of the reference-protocol-based whole-body TAC (Eq. (7.1)) and can be further used to determine a pseudo-whole-body time-integrated activity A~WB,pseudo (Eq. (7.2)).

[3] = mono-exponential fit to total activity in abdominal SPECT 24, 48, 72 h p. i., median of n = 5 patients per therapy

Question: For `O=C(O)CC[C@H](NC(=O)N[C@@H](CCCCNC(=O)[C@H](Cc1ccc2ccccc2c1)NC(=O)[C@H]1CC[C@H](CNC(=O)CN2CCN(CC(=O)O)CCN(CC(=O)O)CCN(CC(=O)O)CC2)CC1)C(=O)O)C(=O)O` [Lu-177-PSMA-617, Lu-177-DKFZ-PSMA-617, metal not drawn], which “DBM ← total HP24, total bone marrow absorbed dose” value (shortened to “DBM ← total HP24”) (bone marrow; single whole-body planar image 24 h p. i., median of n = 5 patients per therapy) is on record?
Answer: 11.3 mGy/GBq

Question: And the “DBM ← total HP48, total bone marrow absorbed dose” value (from here on “DBM ← total HP48”) (bone marrow; single whole-body planar image 48 h p. i., median of n = 5 patients per therapy)?
Answer: 9.6 mGy/GBq

Question: What about the “DBM ← total HP72, total bone marrow absorbed dose” value (“DBM ← total HP72” for short) (bone marrow; single whole-body planar image 72 h p. i., median of n = 5 patients per therapy) of the same compound?
Answer: 10.1 mGy/GBq

Question: And the “DBM ← total HP24” value (bone marrow; whole-body planar image 24 h p. i., patient P6 (mCRPC, 3718 MBq))?
Answer: 11.3 mGy/GBq

Question: And the “DBM ← total HP24” value (bone marrow; whole-body planar image 24 h p. i., patient P7 (mCRPC, 3743 MBq))?
Answer: 8.1 mGy/GBq

Question: And the “DBM ← total HP24” value (bone marrow; whole-body planar image 24 h p. i., patient P8 (mCRPC, 3745 MBq))?
Answer: 17.1 mGy/GBq

Question: What about the “DBM ← total HP24” value (bone marrow; whole-body planar image 24 h p. i., patient P9 (mCRPC, 3752 MBq)) of the same compound?
Answer: 13.5 mGy/GBq

Question: And the “DBM ← total HP24” value (bone marrow; whole-body planar image 24 h p. i., patient P10 (mCRPC, 3700 MBq))?
Answer: 10.0 mGy/GBq

Question: What about the “DBM ← total HP48” value (bone marrow; whole-body planar image 48 h p. i., patient P6 (mCRPC, 3718 MBq)) of the same compound?
Answer: 9.6 mGy/GBq

Question: And the “DBM ← total HP48” value (bone marrow; whole-body planar image 48 h p. i., patient P7 (mCRPC, 3743 MBq))?
Answer: 6.7 mGy/GBq

Question: And the “DBM ← total HP48” value (bone marrow; whole-body planar image 48 h p. i., patient P8 (mCRPC, 3745 MBq))?
Answer: 17.1 mGy/GBq

Question: What about the “DBM ← total HP48” value (bone marrow; whole-body planar image 48 h p. i., patient P9 (mCRPC, 3752 MBq)) of the same compound?
Answer: 13.6 mGy/GBq

Question: And the “DBM ← total HP48” value (bone marrow; whole-body planar image 48 h p. i., patient P10 (mCRPC, 3700 MBq))?
Answer: 8.1 mGy/GBq

Question: What about the “DBM ← total HP72” value (bone marrow; whole-body planar image 72 h p. i., patient P6 (mCRPC, 3718 MBq)) of the same compound?
Answer: 10.1 mGy/GBq

Question: What about the “DBM ← total HP72” value (bone marrow; whole-body planar image 72 h p. i., patient P7 (mCRPC, 3743 MBq)) of the same compound?
Answer: 7.0 mGy/GBq

Question: And the “DBM ← total HP72” value (bone marrow; whole-body planar image 72 h p. i., patient P8 (mCRPC, 3745 MBq))?
Answer: 16.8 mGy/GBq

Question: And the “DBM ← total HP72” value (bone marrow; whole-body planar image 72 h p. i., patient P9 (mCRPC, 3752 MBq))?
Answer: 15.1 mGy/GBq

Question: What about the “DBM ← total HP72” value (bone marrow; whole-body planar image 72 h p. i., patient P10 (mCRPC, 3700 MBq)) of the same compound?
Answer: 8.5 mGy/GBq

Question: And the “effective half-life for the slow phase of the bi-exponential fit to the blood time-activity measurements” value [1]?
Answer: 14 h

Question: What about the “T1/2, SPECT, SPECT-based abdominal effective half-life” value (shortened to “T1/2, SPECT”) [2, 3] of the same compound?
Answer: 42 h

Question: And the “T1/2, SPECT” value ([2]; mono-exponential fit, abdominal SPECT 24, 48, 72 h p. i., patient P6 (mCRPC))?
Answer: 33 h

Question: What about the “T1/2, SPECT” value ([2]; mono-exponential fit, abdominal SPECT 24, 48, 72 h p. i., patient P7 (mCRPC)) of the same compound?
Answer: 50 h

Question: What about the “T1/2, SPECT” value ([2]; mono-exponential fit, abdominal SPECT 24, 48, 72 h p. i., patient P8 (mCRPC)) of the same compound?
Answer: 67 h

Question: And the “T1/2, SPECT” value ([2]; mono-exponential fit, abdominal SPECT 24, 48, 72 h p. i., patient P9 (mCRPC))?
Answer: 31 h

Question: What about the “T1/2, SPECT” value ([2]; mono-exponential fit, abdominal SPECT 24, 48, 72 h p. i., patient P10 (mCRPC)) of the same compound?
Answer: 42 h

Question: With `C[C@@H](O)[C@H](NC(=O)[C@@H]1CSSC[C@H](NC(=O)[C@@H](Cc2ccccc2)NC(=O)CN2CCN(CC(=O)O)CCN(CC(=O)O)CCN(CC(=O)O)CC2)C(=O)N[C@@H](Cc2ccc(O)cc2)C(=O)N[C@H](Cc2c[nH]c3ccccc23)C(=O)N[C@@H](CCCCN)C(=O)N[C@@H]([C@@H](C)O)C(=O)N1)C(=O)O` [Lu-177-Octreotate, Lu-177-[DOTA^0,Tyr^3]-Octreotate, metal not drawn] as the compound, how does the “DBM ← total HP72” value (bone marrow; whole-body planar image 72 h p. i., patient P1 (NET, 7654 MBq)) read?
Answer: 12.1 mGy/GBq

Question: And the “effective half-life for the slow phase of the bi-exponential fit to the blood time-activity measurements” value [1]?
Answer: 25 h

Question: What about the “T1/2, SPECT” value [2, 3] of the same compound?
Answer: 61 h

Question: What about the “T1/2, SPECT” value ([2]; mono-exponential fit, abdominal SPECT 24, 48, 72 h p. i., patient P1 (NET)) of the same compound?
Answer: 53 h

Question: And the “T1/2, SPECT” value ([2]; mono-exponential fit, abdominal SPECT 24, 48, 72 h p. i., patient P2 (NET))?
Answer: 61 h

Question: What about the “T1/2, SPECT” value ([2]; mono-exponential fit, abdominal SPECT 24, 48, 72 h p. i., patient P3 (NET)) of the same compound?
Answer: 56 h

Question: What about the “T1/2, SPECT” value ([2]; mono-exponential fit, abdominal SPECT 24, 48, 72 h p. i., patient P4 (NET)) of the same compound?
Answer: 73 h

Question: And the “T1/2, SPECT” value ([2]; mono-exponential fit, abdominal SPECT 24, 48, 72 h p. i., patient P5 (NET))?
Answer: 87 h
